The text below walks through data of US7709645B2, “Pyrrolo-pyridine kinase modulators” (SGX Pharmaceuticals, Inc., priority 2004, dated 2010).

The assay deals with T1, T315I mutant form of BCR-ABL in Ba/F3 cells (Homo sapiens, UniProt P00519, T315I).
T1 construct: expressed in transfected cells; host or cells: Ba/F3 cells; the other entry of the earlier key: BCR (P11274, Breakpoint cluster region protein)
T1 sequence (P00519 242-493 T315I limits assumed): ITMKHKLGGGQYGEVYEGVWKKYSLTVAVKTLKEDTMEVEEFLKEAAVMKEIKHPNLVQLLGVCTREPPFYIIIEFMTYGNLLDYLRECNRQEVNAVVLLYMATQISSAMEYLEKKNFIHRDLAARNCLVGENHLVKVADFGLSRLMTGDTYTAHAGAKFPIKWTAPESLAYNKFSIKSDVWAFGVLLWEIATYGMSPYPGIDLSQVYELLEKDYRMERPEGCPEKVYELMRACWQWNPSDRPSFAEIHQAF
The assay is described as follows: Abl_T315I p-ELISA Cellular Assay (BCR-ABL phospho-ELISA). It is filed as cell-based. Conditions: 60-120 minutes incubation. Here is the method: Cells (Ba/F3 cells transfected with WT BCR-ABL, other kinases, or T315I, Y253F, M351T, E255K, or other mutant forms of BCR-ABL) were grown in the absence of IL-3 at least ½ week before the assay. The day before assay, the cells were fed with fresh media so that at the time of assay the cells were in log phase. Ba/F3 cells that had been grown in the absence of IL-3 for at least ½ week were resuspended in RPMI 1640 so that each well of a 96-well plate would contain approximately 200,000 cells. Cells were distributed in a 96-well plate containing serially diluted concentrations of test compounds. Cells were typically incubated with or without test compounds for 60-120 minutes at 5% CO2, 37° C. The incubation was performed with or without other additives such as 10% FCS or 50% human plasma. After incubation of compounds, lysis buffer was added and incubated for 10-15 minutes; the lysate was cleared by centrifugation.
To make the ELISA plate, commercially available Anti-ABL antibodies (e.g. (Ab-3, Calbiochem OP20) were prepared at a concentration of 0.125 μg/ml in coating buffer (0.1M Na-carbonate, pH 9.5), and plated at 10 ml per plate (12.5 μl 100 μg/ml Ab/10 ml). In a high binding multi-well plate, 100 μl Ab in coating buffer were added to each well, and each plate was covered with a plate seal and incubated overnight at 4° C.
Excess antibody was removed and the ELISA plate was washed 3-4 times with 200 μl of wash buffer (0.05% Tween in PBS, pH 7.4). 150 μl of lysate (see above) were transferred to the ELISA plate. Plates were sealed and incubated 2 hours at room temperature. The detection antibody (e.g. HRP conjugated anti-pTyr or unconjugated α-p-Y 4G10, Upstate) was prepared in assay diluent. The antibody was diluted 1:1000 (stock=2 μg/μl, 200 μg in 100 μl; f.c.=2 μg/ml) in assay diluent and 10 ml of diluted antibody per plate were added. The lysate was removed from the ELISA plates, and wells were washed four times with 200 μl of wash buffer per well. 100 μl of detection antibody was added to each well; the plate was covered, and incubated 1 hr at room temperature (21° C.). Excess detection antibody was removed from the ELISA plates, and the wells were washed four times with 200 μl of wash buffer per well.
If necessary, (i.e. for unconjugated anti-pTyr antibody) secondary antibody (goat anti-rabbit HRP) was diluted 1:3000 in assay diluent (3.33 μl per 10 ml diluent) and added at 10 ml of diluted antibody per plate. Excess secondary antibody was removed from the ELISA plate, and the plate was washed four times with 200 μl per well of wash buffer.
Substrate Reagent A and Substrate Reagent B (Pierce Cat#37070 SuperSignal ELISA Pico Chemiluminescent Substrate) were added immediately before use (10 ml resultant solution per plate). 100 μl substrate were added per well, mixed for 1 minute, and chemiluminescent signal was measured with a luminometer.
(An ELISA detects its analyte on a solid surface through an enzyme-linked reagent.)
As to `COc1ccccc1-c1c[nH]c2ncc(-c3ccc(S(N)(=O)=O)s3)cc12` [AE11], the half-maximal inhibitory concentration (IC50) (usually the point on the concentration scale where inhibition reaches its midpoint) lay within 0.1 to 1 µM.

As for `CNC(=O)c1cc(-c2cnc3[nH]cc(-c4ccccc4OC)c3c2)cs1` [AE2], the half-inhibitory concentration (IC50) is 0.1 to 1 µM.

For the molecule `COc1cc(-c2cnc3[nH]cc(-c4ccc(O)cc4)c3c2)ccc1O` [AE58], the IC50 was less than 0.1 µM.

`O=C(c1cncc(-c2cnc3[nH]cc(-c4ccc5cc[nH]c5c4)c3c2)c1)N1CCOCC1` [AE14] registered an IC50 of less than 0.1 µM.

`Oc1cccc(-c2cnc3[nH]cc(-c4ccc(O)c(F)c4)c3c2)c1` [AE48]: the IC50 lay in the range of 0.1 to 1 µM.

`COc1ccccc1-c1c[nH]c2ncc(-c3ccc(O)c(CN4CCCN(C)CC4)c3)cc12` [AE41] showed an IC50 of less than 0.1 µM.

As for `Oc1cccc(-c2cnc3[nH]cc(-c4ccn[nH]4)c3c2)c1` [AE49], the IC50 lay in the range of 0.1 to 1 µM.

For `c1cc2cc(-c3c[nH]c4ncc(-c5ccc6[nH]cnc6c5)cc34)ccc2[nH]1` [AE22], the 50% inhibitory concentration (IC50) was in the range of 0.1 to 1 µM.

`COc1ccccc1-c1c[nH]c2ncc(-c3cc[nH]c(=O)c3)cc12` [AE9] yielded an IC50 of 0.1 to 1 µM.

With `COc1ccccc1-c1c[nH]c2ncc(-c3cccc(C(=N)N4CCCCC4)c3)cc12` [AE42], the half-maximal inhibitory concentration (IC50) is less than 0.1 µM.

On to `COc1ccccc1-c1c[nH]c2ncc(-c3csc(C(=O)N(C)C)c3)cc12` [AE3], for which the IC50 is less than 0.1 µM.

For the molecule `COc1ccccc1-c1c[nH]c2ncc(-c3cccc(S(C)(=O)=O)c3)cc12` [AE13], the 50% inhibitory concentration (IC50) is 0.1 to 1 µM.

`Nc1nc(-c2c[nH]c3ncc(-c4ccc5[nH]ccc5c4)cc23)cs1` [AE55]: the IC50 is less than 0.1 µM.

With `COc1cc(-c2cnc3[nH]cc(-c4ccccc4OC)c3c2)ccc1O` [AE64], the IC50 is less than 0.1 µM.

`CNC(=O)c1cncc(-c2cnc3[nH]cc(-c4ccccc4OC)c3c2)c1` [AE1] gave an IC50 of less than 0.1 µM.

`N#Cc1cc(-c2cnc3[nH]cc(-c4ccc5[nH]ccc5c4)c3c2)ccc1O` [AE20] displayed an IC50 of less than 0.1 µM.
